# Measurements reported in patent publication US20220220448A1, “INDUCED HUMAN COLITIC ORGANOIDS” (The Cleveland Clinic Foundation, priority 2019, published 2022).
# Experiments:
# iHNOs = assay: Repertaxin in vivo: non-IBD spheroids in TS-HA hydrogel beads implanted subcutaneously in NSG mice
# Source text: (§1) FIGS. 7A-U: Repertaxin attenuates the progression of the colitic phenotype in iHUCOs in vivo. (A) Schematic representation of repertaxin study in vivo; spheroids encapsulated in TS-HA hydrogel beads were implanted subcutaneously in the dorsal flanks of immunocompromised NSG mice receiving daily injections of repertaxin vs. PBS (21 days). (B, C) Representative immunofluorescence dual-staining of CXCR1 (red) and CXCL8 (green) expressed in epithelium and mesenchyme of iHNO and iHUCO in Ctrl (B) or repertaxin-treated (C). (D, E) Summarized percentages of cells positive for CXCR1, CXCL8 and both, in the epithelium and mesenchyme of non-IBD and UC organoids, after treatment with repertaxin (20 mg/kg) compared to PBS (Ctrl). (F-G) Representative H&E of non-IBD and UC organoids harvested after 21 days for control (F) and repertaxin treatment (G). (H, I) Mean organoid diameter and epithelial thickness after 21 days of repertaxin treatment vs. Ctrl. […] Results reported for the plasma membrane only (Mem), and cytoplasm+nucleus (Cyt+Nuc) cellular compartments. (R, S) Representative immunohistochemistry of RhoA, highlighting the effect of repertaxin on the cellular localization of the protein in plasma membrane only (Mem), and cytoplasm (Cyt) compartments. (T, U) Summarized percentages of cells expressing RhoA in Ctrl vs. repertaxin-treated organoids for plasma membrane-only (Mem) and cytoplasm (Cyt). IHC Scale bar, 40 um. IF Scale bar, 25 um. N=3 each. ns=not significant, *(p<0.05), **(p<0.01), ***(p<0.001), ****(p<0.0001). […] To test the significance of our repertaxin observations in vivo, we studied the effect of repertaxin on the developmental progression of spheroids to organoids, implanted subcutaneously in the dorsal flank of NSG mice (FIG. 7A, STAR Methods). In brief, we encapsulated the spheroids in TS-HA hydrogel beads and implanted the beads subcutaneously. Mice were then treated daily for 21 days with either 20 mg/kg repertaxin or PBS (control). The rate of growth was measured twice per week with calipers, and the volume calculated (STAR Methods).
# [1] = system: epithelial barrier of non-IBD organoids (iHNOs); assay: Epithelial barrier permeability by microinjection of 4 kD dextran, real-time, iHNOs; format: cell-based, human; settings: 4 kDa dextran, 15 hours, treated vs untreated
# Source text: (§2) FIGS. 6A-U: Repertaxin attenuates the progression of the colitic phenotype in iHUCOs in vitro. (A, B) Representative immunofluorescence co-localization expression of CXCR1 (red) and CXCL8 (green) expressed in epithelium and mesenchyme of iHNO and iHUCO in the absence (A) or presence of repertaxin (B). (C, D) Summarized percentages of cells positive for CXCR1, CXCL8 and both, in the epithelium and mesenchyme of non-IBD and UC iHCOs, after treatment with repertaxin (20 μm) compared to vehicle (Ctrl). (E) Representative H&E of non-IBD and UC organoids in Ctrl compared to repertaxin treated (F). (G, H) Organoid mean diameter and epithelial thickness after 21 days of treatment with repertaxin compared to control. […] (S, T) Quantification of the percentage of the cells in control vs. repertaxin-treated organoids, positive for RhoA in plasma membrane-only (Mem) and cytoplasm (Cyt). […] IHC Scale bar, 40 um. IF Scale bar, 25 um. N=3 each; except for barrier studies, N=1. ns: not significant, **(p<0.01), ***(p<0.001), ****(p<0.0001). Moreover, to functionally confirm the adherens vs. tight junction signature in UC compared to non-IBD organoids, we used the recently described microinjection technique by Hill et al. to measure and compare the epithelial barrier permeability for both UC and non-IBD organoids in real-time. […]
# [2] = system: UC epithelial barrier (iHUCOs); assay: Epithelial barrier permeability by microinjection of 4 kD dextran, real-time, iHUCOs; format: cell-based, human; settings: 4 kDa dextran, 15 hours, treated vs untreated
# Source text: as §2
# iHUCOs (UC organoids) = assay: Repertaxin treatment of iHUCOs in vitro during development from spheroids to organoids (IF, IHC, H&E, in situ hybridization); format: cell-based, human
# Source text: (§3) FIGS. 6A-U: Repertaxin attenuates the progression of the colitic phenotype in iHUCOs in vitro. (A, B) Representative immunofluorescence co-localization expression of CXCR1 (red) and CXCL8 (green) expressed in epithelium and mesenchyme of iHNO and iHUCO in the absence (A) or presence of repertaxin (B). (C, D) Summarized percentages of cells positive for CXCR1, CXCL8 and both, in the epithelium and mesenchyme of non-IBD and UC iHCOs, after treatment with repertaxin (20 μm) compared to vehicle (Ctrl). (E) Representative H&E of non-IBD and UC organoids in Ctrl compared to repertaxin treated (F). (G, H) Organoid mean diameter and epithelial thickness after 21 days of treatment with repertaxin compared to control. […] (S, T) Quantification of the percentage of the cells in control vs. repertaxin-treated organoids, positive for RhoA in plasma membrane-only (Mem) and cytoplasm (Cyt). […] IHC Scale bar, 40 um. IF Scale bar, 25 um. N=3 each; except for barrier studies, N=1. ns: not significant, **(p<0.01), ***(p<0.001), ****(p<0.0001). The upregulation of the CXCL8 receptor pro-inflammatory interaction in iHUCOs (FIG. 5) led us to study the effect of repertaxin, a small molecule inhibitor of the CXCL8 receptor, on organoids development. In brief, we treated both UC and non-IBD organoids with repertaxin for 21 days, during their development from spheroids to organoids and compared their phenotypic characteristics to vehicle (Ctrl) organoids.
# iHUCOs = assay: Repertaxin in vivo: UC spheroids in TS-HA hydrogel beads implanted subcutaneously in NSG mice
# Source text: as §1
# [3] = system: iHNOs (non-IBD organoids); assay: Repertaxin treatment of iHNOs in vitro during development from spheroids to organoids (IF, IHC, H&E); format: cell-based, human
# Source text: as §3
# [4] = non-IBD organoids, 20 mg/kg daily, 21 days, vs PBS
# [5] = UC organoids, IHC, repertaxin vs control
# [6] = iHUCOs epithelium, IHC, repertaxin vs control
# [7] = iHUCOs, 21 days repertaxin vs control
# [8] = iHUCOs, repertaxin (20 μm), 21 days, vs control
# [9] = iHUCOs, repertaxin (20 μm), 21 days, vs vehicle (Ctrl), average
# [10] = UC organoids, 20 mg/kg daily, 21 days, vs PBS
# [11] = iHUCOs, 20 mg/kg daily, 21 days, vs PBS
# [12] = iHUCOs, IHC, vs untreated control
# [13] = iHNOs, IHC, repertaxin vs control
# [14] = non-IBD organoids, 21 days repertaxin vs control
# [15] = non-IBD organoids, IHC, repertaxin vs control
# [16] = non-IBD organoids, repertaxin (20 μm), 21 days, vs control
structure (smiles),measurement,setting,value
CC(C)Cc1ccc([C@@H](C)C(=O)NS(C)(=O)=O)cc1 [repertaxin],epithelial thickness,"iHNOs; iHNOs, 20 mg/kg daily, 21 days, vs PBS",no significant effect
same,E-cadherin expression pattern,"iHNOs; iHNOs, IHC, vs control",higher rate of expression in membrane
same,RhoA expression,"iHNOs; iHNOs, IHC, vs control",did not have a significant effect
same,β-catenin expression pattern,"iHNOs; iHNOs, IHC, vs control",higher rate of expression in membrane
same,Ki67 proliferation rate in the epithelium,"iHNOs; non-IBD epithelium, 20 mg/kg daily, 21 days, vs PBS",did not have a significant effect
same,CXCL8 expression,iHNOs; [4],less
same,CXCR1 expression,iHNOs; [4],less
same,Claudin-1 expression,"iHNOs; non-IBD organoids, IHC, vs control",did not change
same,epithelial permeability (dye release),[1],did not have a significant effect
same,rate of permeability of the epithelial barrier (dye release),[2],significantly decreased
same,real-time measurement timepoints with significantly decreased permeability,[2],50%
same,cytoplasmic and nuclear expression of E-cadherin,iHUCOs (UC organoids); [5],greater
same,cytoplasmic and nuclear expression of β-catenin,iHUCOs (UC organoids); [5],greater
same,RhoA expression in cytoplasm,iHUCOs (UC organoids); [6],less RhoA expression
same,less RhoA expression on the membrane (activated RhoA),iHUCOs (UC organoids); [6],~5 fold
same,epithelial thickness,iHUCOs (UC organoids); [7],less thick epithelium
same,organoid size,iHUCOs (UC organoids); [7],significantly lower size
same,Claudin-1 expression,"iHUCOs (UC organoids); iHUCOs, IHC, repertaxin vs control",significantly more expression
same,CXCL8 expression,iHUCOs (UC organoids); [8],significantly lower than control
same,percentage of co-expression of CXCL8/CXCR1,iHUCOs (UC organoids); [8],significantly lower than control
same,lower expression of CXCR1 in the epithelium,iHUCOs (UC organoids); [9],7 fold
same,lower expression of CXCR1 in the mesenchyme,iHUCOs (UC organoids); [9],9 fold
same,expression pattern of p-YAP1,"iHUCOs (UC organoids); treated iHUCOs, IHC",more closely resembled the expression patterns in iHNOs
same,expression pattern of LGR5,"iHUCOs (UC organoids); treated iHUCOs, in situ hybridization",more closely resembled the expression patterns in iHNOs
same,overall calculated volume of implanted beads,"iHUCOs; 20 mg/kg repertaxin daily for 21 days vs PBS, groups (UC and non-IBD) not told apart",significantly greater in the PBS than in the repertaxin-treated groups
same,CXCL8 expression,iHUCOs; [10],less
same,CXCR1 expression,iHUCOs; [10],less
same,Ki67 proliferation rate in the epithelium,iHUCOs; [11],significantly reduced
same,epithelial thickness,iHUCOs; [11],significant less thick epithelium
same,Claudin-1 expression,"iHUCOs; iHUCOs, IHC, vs control",significantly increased
same,cytoplasmic expression of RhoA,"iHUCOs; iHUCOs, IHC, vs control",strongly decreased
same,membranous expression of RhoA,"iHUCOs; iHUCOs, IHC, vs control",strongly decreased
same,cytoplasmic and nuclear expression of E-cadherin,iHUCOs; [12],greater cytoplasmic and nuclear expression
same,cytoplasmic and nuclear expression of β-catenin,iHUCOs; [12],greater cytoplasmic and nuclear expression
same,Ki67 expression in the epithelium (proliferation),[3]; [13],significantly lower expression
same,RhoA expression,[3]; [13],did not significantly affect
same,Claudin-1 expression,"[3]; iHNOs, IHC, treated vs control",no significant changes
same,epithelial thickness,[3]; [14],did not change
same,organoid size,[3]; [14],significantly smaller organoids
same,cells with expression of E-cadherin limited to the plasma membrane,[3]; [15],significantly more cells with limited expression
same,cells with expression of β-catenin limited to the plasma membrane,[3]; [15],significantly more cells with limited expression
same,cytoplasmic and nuclear expression of E-cadherin,[3]; [15],lower cytoplasmic and nuclear expression
same,cytoplasmic and nuclear expression of β-catenin,[3]; [15],lower cytoplasmic and nuclear expression
same,CXCL8 expression,[3]; [16],significantly less
same,CXCR1 expression,[3]; [16],significantly less
